Test: Solubility evaluation in polymerizable polysiloxane-containing formulation
Assay type: physicochemical
Conditions: 0.06 g photochromic compound in 1.50 g polymerizable polysiloxane-containing formulation of Table 1; stirred 24 hours at room temperature; visual observation
Experimental: A polymerizable polysiloxane-containing formulation was prepared by mixing together the ingredients and in the amounts as tabulated in the following Table 1.
The photochromic compounds of Comparative Examples CE-1 and CE-2, and Examples 4 and 5, prepared as described in Part-1, were each added to a polymerizable polysiloxane-containing formulation according to Table 1, to form Polymerizable Photochromic Compositions A, B, C, and D, as summarized in the following Table 2. The Polymerizable Photochromic Compositions were each stirred for 24 hours at room temperature after which the solubility of the photochromic compounds was determined by visual observation.

SMILES	Observed Solubility
C=C(C)C(=O)OCCOCCOCCOc1ccc(C2(c3ccccc3)C=Cc3c4c(c5cc(N6CCCCC6)c(OC)cc5c3O2)-c2ccc(-c3ccccc3)cc2C4(CCC)CCC)cc1 (stereo not shown) [CE-1]	poor
C=C(C)C(=O)OCCOC(=O)CCC(=O)N1CCN(c2ccc(C3(c4ccccc4)C=Cc4c5c(c6cc(N7CCCCC7)c(OC)cc6c4O3)-c3ccccc3C5(C)C)cc2)CC1 (stereo not shown) [CE-2]	poor
C=C(C)C(=O)OCCOCCOCCOc1ccc(C2(c3ccccc3)C=Cc3c4c(c5cc(N6CCCCC6)c(OC)cc5c3O2)-c2ccc(-c3ccc([Si](C)(C)C)cc3)cc2C4(CCC)CCC)cc1 (stereo not shown) [Example 4, 6-methoxy-7-(piperidin-1-yl)-11-(4-trimethylsilylphenyl)-13,13-dipropyl-3-phenyl-3-(2-(2-(1-methacroylethoxy)ethoxy)ethoxy)phenyl-3H,13H-indeno[2′,3′: 3,4]naphtho[1,2-b]pyran]	excellent
C=C(C)C(=O)OCCOC(=O)CCC(=O)N1CCN(c2ccc(C3(c4ccccc4)C=Cc4c5c(c6cc(N7CCCCC7)c(OC)cc6c4O3)-c3ccc([Si](C)(C)C)cc3C5(C)C)cc2)CC1 (stereo not shown) [Example 5]	excellent

Reference: patent US12703712B2, “Indenonaphthopyrans having trialkylsilyl and ethylenically unsaturated groups” (Transitions Optical, Ltd., priority 2021, dated 2026)
